Source: US9546156B2, “N-bicyclic aryl,N'-pyrazolyl urea, thiourea, guanidine cyanoguanidine compounds as TrkA kinase inhibitors” (Array BioPharma Inc., priority 2012, dated 2017)

Tests used:
Assay in all cases: Off-target kinase profiling (KinaseProfiler)
Format in all cases: biochemical
Conditions in all cases: 10 μM, ATP near Km
Met = biological target: T1, Met (Homo sapiens, UniProt P08581)
T1 construct: purchased Millipore, Inc. (KinaseProfiler service)
Method: (§1) A representative compound (Example 16) of the invention was tested for off-target kinase activity at a concentration of 10 μM by Millipore, Inc. in their KinaseProfiler™ service against all the kinases available in their full kinase panel. The compound was run in duplicate at a concentration of ATP near the Km for each individual kinase according to Millipore's specifications. The results are shown in Table B. Data are reported as percent of control (POC) and are the average of the two replicates.

MST1 = biological target: T2, MST1 (Homo sapiens, UniProt Q13043)
T2 construct: purchased Millipore, Inc. (KinaseProfiler service)
Method: as §1

DAPK3 = biological target: T3, DAPK3 (Homo sapiens, UniProt O43293)
T3 construct: purchased Millipore, Inc. (KinaseProfiler service)
Method: as §1

IGF-1R = biological target: T4, IGF-1R (Homo sapiens, UniProt P08069)
T4 construct: purchased Millipore, Inc. (KinaseProfiler service)
Method: as §1

ROCK-II = biological target: T5, ROCK-II (Homo sapiens, UniProt O75116)
T5 construct: purchased Millipore, Inc. (KinaseProfiler service)
Method: as §1

CDK1/cyclinB = biological target: T6, CDK1/cyclinB (Homo sapiens, UniProt P06493)
T6 construct: purchased Millipore, Inc. (KinaseProfiler service)
Method: as §1

JNK3 = biological target: T7, JNK3 (Homo sapiens, UniProt P53779)
T7 construct: purchased Millipore, Inc. (KinaseProfiler service)
Method: as §1

BrSK1 = biological target: T8, BrSK1 (Homo sapiens, UniProt Q8TDC3)
T8 construct: purchased Millipore, Inc. (KinaseProfiler service)
Method: as §1

TAO1 = biological target: T9, TAO1 (Homo sapiens, UniProt Q7L7X3)
T9 construct: purchased Millipore, Inc. (KinaseProfiler service)
Method: as §1

TBK1 = biological target: T10, TBK1 (Homo sapiens, UniProt Q9UHD2)
T10 construct: purchased Millipore, Inc. (KinaseProfiler service)
Method: as §1

NEK3 = biological target: T11, NEK3 (Homo sapiens, UniProt P51956)
T11 construct: purchased Millipore, Inc. (KinaseProfiler service)
Method: as §1

EphA8 = biological target: T12, EphA8 (Homo sapiens, UniProt P29322)
T12 construct: purchased Millipore, Inc. (KinaseProfiler service)
Method: as §1

LKB1 = biological target: T13, LKB1 (Homo sapiens, UniProt Q15831)
T13 construct: purchased Millipore, Inc. (KinaseProfiler service)
Method: as §1

FGFR3 = biological target: T14, FGFR3 (Homo sapiens, UniProt P22607)
T14 construct: purchased Millipore, Inc. (KinaseProfiler service)
Method: as §1

p70S6K = biological target: T15, p70S6K (Homo sapiens, UniProt P23443)
T15 construct: purchased Millipore, Inc. (KinaseProfiler service)
Method: as §1

Axl = biological target: T16, Axl (Homo sapiens, UniProt P30530)
T16 construct: purchased Millipore, Inc. (KinaseProfiler service)
Method: as §1

NLK = biological target: T17, NLK (Homo sapiens, UniProt Q9UBE8)
T17 construct: purchased Millipore, Inc. (KinaseProfiler service)
Method: as §1

DYRK2 = biological target: T18, DYRK2 (Homo sapiens, UniProt Q92630)
T18 construct: purchased Millipore, Inc. (KinaseProfiler service)
Method: as §1

BrSK2 = biological target: T19, BrSK2 (Homo sapiens, UniProt Q8IWQ3)
T19 construct: purchased Millipore, Inc. (KinaseProfiler service)
Method: as §1

SGK3 = biological target: T20, SGK3 (Homo sapiens, UniProt Q96BR1)
T20 construct: purchased Millipore, Inc. (KinaseProfiler service)
Method: as §1

EphA4 = biological target: T21, EphA4 (Homo sapiens, UniProt P54764)
T21 construct: purchased Millipore, Inc. (KinaseProfiler service)
Method: as §1

PhKgamma2 = biological target: T22, PhKgamma2 (Homo sapiens, UniProt P15735)
T22 construct: purchased Millipore, Inc. (KinaseProfiler service)
Method: as §1

PKAC-alpha = biological target: T23, PKAC-alpha (Homo sapiens, UniProt P17612)
T23 construct: purchased Millipore, Inc. (KinaseProfiler service)
Method: as §1

MST2 = biological target: T24, MST2 (Homo sapiens, UniProt Q13188)
T24 construct: purchased Millipore, Inc. (KinaseProfiler service)
Method: as §1

TNK2 = biological target: T25, TNK2 (Homo sapiens, UniProt Q07912)
T25 construct: purchased Millipore, Inc. (KinaseProfiler service)
Method: as §1

CDK3/cyclinE = biological target: T26, CDK3/cyclinE (Homo sapiens, UniProt Q00526)
T26 construct: purchased Millipore, Inc. (KinaseProfiler service)
Method: as §1

JAK3 = biological target: T27, JAK3 (Homo sapiens, UniProt P52333)
T27 construct: purchased Millipore, Inc. (KinaseProfiler service)
Method: as §1

MARK2 = biological target: T28, MARK2 (Homo sapiens, UniProt Q7KZI7)
T28 construct: purchased Millipore, Inc. (KinaseProfiler service)
Method: as §1

MuSK = biological target: T29, MuSK (Homo sapiens, UniProt O15146)
T29 construct: purchased Millipore, Inc. (KinaseProfiler service)
Method: as §1

CHK1 = biological target: T30, CHK1 (Homo sapiens, UniProt O14757)
T30 construct: purchased Millipore, Inc. (KinaseProfiler service)
Method: as §1

CDK5/p35 = biological target: T31, CDK5/p35 (Homo sapiens, UniProt Q00535)
T31 construct: purchased Millipore, Inc. (KinaseProfiler service)
Method: as §1

Pim-1 = biological target: T32, Pim-1 (Homo sapiens, UniProt P11309)
T32 construct: purchased Millipore, Inc. (KinaseProfiler service)
Method: as §1

CDK7/cyclinH/MAT1 = biological target: T33, CDK7/cyclinH/MAT1 (Homo sapiens, UniProt P50613)
T33 construct: purchased Millipore, Inc. (KinaseProfiler service)
Method: as §1

MSK1 = biological target: T34, MSK1 (Homo sapiens, UniProt O75582)
T34 construct: purchased Millipore, Inc. (KinaseProfiler service)
Method: as §1

ITK = biological target: T35, ITK (Homo sapiens, UniProt Q08881)
T35 construct: purchased Millipore, Inc. (KinaseProfiler service)
Method: as §1

PAK2 = biological target: T36, PAK2 (Homo sapiens, UniProt Q13177)
T36 construct: purchased Millipore, Inc. (KinaseProfiler service)
Method: as §1

CDK5/p25 = biological target: T37, CDK5/p25 (Homo sapiens, UniProt Q00535)
T37 construct: purchased Millipore, Inc. (KinaseProfiler service)
Method: as §1

PKCtheta = biological target: T38, PKCtheta (Homo sapiens, UniProt Q04759)
T38 construct: purchased Millipore, Inc. (KinaseProfiler service)
Method: as §1

mTOR = biological target: T39, mTOR (Homo sapiens, UniProt P42345)
T39 construct: purchased Millipore, Inc. (KinaseProfiler service)
Method: as §1

eEF-2K = biological target: T40, eEF-2K (Homo sapiens, UniProt O00418)
T40 construct: purchased Millipore, Inc. (KinaseProfiler service)
Method: as §1

AKT2 = biological target: T41, AKT2 (Homo sapiens, UniProt P31751)
T41 construct: purchased Millipore, Inc. (KinaseProfiler service)
Method: as §1

T27 sequence (P52333 whole entry): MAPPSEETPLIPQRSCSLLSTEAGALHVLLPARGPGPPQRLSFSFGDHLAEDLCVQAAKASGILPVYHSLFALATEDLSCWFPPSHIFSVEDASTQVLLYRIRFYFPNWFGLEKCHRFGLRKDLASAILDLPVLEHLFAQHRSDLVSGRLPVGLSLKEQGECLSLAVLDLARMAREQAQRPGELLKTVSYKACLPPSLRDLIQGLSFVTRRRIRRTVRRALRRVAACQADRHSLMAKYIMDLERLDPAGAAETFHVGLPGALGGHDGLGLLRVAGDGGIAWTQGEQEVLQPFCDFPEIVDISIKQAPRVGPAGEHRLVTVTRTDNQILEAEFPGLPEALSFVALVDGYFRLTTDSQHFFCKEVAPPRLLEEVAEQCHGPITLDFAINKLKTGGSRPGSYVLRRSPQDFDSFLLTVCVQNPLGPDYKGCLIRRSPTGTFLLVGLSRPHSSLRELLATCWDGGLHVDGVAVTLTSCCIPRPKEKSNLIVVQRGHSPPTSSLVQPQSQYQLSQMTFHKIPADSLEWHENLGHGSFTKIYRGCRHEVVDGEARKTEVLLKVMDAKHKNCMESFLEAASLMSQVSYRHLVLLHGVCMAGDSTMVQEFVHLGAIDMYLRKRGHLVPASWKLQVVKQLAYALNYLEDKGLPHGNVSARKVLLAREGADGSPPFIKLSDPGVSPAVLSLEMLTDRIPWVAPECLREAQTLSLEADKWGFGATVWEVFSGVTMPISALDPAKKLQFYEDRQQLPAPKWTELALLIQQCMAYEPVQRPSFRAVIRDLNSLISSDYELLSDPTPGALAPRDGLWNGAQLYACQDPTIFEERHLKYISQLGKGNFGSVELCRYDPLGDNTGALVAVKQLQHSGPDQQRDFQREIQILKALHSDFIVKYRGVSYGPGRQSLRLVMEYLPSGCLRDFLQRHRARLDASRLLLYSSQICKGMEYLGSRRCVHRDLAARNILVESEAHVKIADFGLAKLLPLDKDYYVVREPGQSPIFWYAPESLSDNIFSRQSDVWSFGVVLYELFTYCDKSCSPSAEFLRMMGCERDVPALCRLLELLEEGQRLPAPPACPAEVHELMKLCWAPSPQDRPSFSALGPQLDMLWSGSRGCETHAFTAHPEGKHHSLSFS
T29 sequence (O15146 24-869): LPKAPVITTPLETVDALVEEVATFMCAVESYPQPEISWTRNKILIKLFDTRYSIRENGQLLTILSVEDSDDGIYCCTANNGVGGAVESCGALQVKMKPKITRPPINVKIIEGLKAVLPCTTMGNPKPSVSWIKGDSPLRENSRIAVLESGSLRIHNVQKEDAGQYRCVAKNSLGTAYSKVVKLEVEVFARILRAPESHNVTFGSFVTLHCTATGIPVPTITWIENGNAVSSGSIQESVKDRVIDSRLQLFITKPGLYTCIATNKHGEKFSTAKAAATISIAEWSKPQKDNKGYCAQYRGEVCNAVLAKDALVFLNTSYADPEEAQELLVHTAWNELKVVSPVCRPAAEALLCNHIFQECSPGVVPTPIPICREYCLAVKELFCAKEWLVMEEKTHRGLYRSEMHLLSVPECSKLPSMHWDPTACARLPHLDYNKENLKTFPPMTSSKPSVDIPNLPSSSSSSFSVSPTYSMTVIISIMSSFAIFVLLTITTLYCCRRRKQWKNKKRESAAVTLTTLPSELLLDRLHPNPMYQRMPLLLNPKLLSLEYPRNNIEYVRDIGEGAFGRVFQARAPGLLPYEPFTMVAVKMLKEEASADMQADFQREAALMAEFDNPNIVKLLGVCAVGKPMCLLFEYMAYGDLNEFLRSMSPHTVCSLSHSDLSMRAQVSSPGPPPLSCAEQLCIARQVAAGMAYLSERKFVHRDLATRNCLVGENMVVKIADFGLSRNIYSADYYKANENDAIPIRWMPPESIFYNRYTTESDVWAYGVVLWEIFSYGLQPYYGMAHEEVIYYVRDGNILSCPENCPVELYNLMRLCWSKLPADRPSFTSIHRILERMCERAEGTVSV
T2 sequence (Q13043 whole entry): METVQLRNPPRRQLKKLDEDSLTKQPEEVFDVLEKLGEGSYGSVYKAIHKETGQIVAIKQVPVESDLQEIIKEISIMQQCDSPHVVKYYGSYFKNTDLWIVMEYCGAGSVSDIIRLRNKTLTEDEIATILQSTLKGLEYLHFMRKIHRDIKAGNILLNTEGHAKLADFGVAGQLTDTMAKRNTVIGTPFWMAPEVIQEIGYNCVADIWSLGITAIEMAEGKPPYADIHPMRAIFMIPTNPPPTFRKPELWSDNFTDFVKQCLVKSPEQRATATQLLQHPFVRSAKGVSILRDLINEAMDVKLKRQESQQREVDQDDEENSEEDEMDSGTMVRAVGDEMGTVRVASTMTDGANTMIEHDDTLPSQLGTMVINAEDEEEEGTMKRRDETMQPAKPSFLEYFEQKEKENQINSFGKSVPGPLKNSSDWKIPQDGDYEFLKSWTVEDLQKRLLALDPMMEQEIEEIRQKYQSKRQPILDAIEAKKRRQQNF
T26 sequence (Q00526 whole entry): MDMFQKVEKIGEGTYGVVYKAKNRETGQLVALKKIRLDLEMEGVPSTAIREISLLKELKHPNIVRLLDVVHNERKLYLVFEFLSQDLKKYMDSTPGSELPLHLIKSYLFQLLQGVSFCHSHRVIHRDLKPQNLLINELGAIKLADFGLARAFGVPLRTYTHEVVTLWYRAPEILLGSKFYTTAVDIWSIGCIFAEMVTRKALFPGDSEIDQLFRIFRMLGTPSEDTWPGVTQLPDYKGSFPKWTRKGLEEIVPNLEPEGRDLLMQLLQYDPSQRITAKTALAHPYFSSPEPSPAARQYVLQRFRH
T26 sequence (P24864 whole entry partner): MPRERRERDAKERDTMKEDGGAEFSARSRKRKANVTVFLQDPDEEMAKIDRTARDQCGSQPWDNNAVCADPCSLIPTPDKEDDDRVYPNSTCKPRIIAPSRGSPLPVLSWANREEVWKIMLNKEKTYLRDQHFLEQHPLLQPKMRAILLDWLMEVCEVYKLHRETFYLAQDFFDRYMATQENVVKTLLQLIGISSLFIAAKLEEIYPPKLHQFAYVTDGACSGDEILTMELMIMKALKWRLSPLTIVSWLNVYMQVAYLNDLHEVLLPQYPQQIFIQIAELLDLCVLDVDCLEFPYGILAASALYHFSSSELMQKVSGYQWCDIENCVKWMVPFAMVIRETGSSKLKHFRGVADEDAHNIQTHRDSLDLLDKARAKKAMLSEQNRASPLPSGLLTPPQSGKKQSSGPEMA
T5 sequence (O75116 whole entry): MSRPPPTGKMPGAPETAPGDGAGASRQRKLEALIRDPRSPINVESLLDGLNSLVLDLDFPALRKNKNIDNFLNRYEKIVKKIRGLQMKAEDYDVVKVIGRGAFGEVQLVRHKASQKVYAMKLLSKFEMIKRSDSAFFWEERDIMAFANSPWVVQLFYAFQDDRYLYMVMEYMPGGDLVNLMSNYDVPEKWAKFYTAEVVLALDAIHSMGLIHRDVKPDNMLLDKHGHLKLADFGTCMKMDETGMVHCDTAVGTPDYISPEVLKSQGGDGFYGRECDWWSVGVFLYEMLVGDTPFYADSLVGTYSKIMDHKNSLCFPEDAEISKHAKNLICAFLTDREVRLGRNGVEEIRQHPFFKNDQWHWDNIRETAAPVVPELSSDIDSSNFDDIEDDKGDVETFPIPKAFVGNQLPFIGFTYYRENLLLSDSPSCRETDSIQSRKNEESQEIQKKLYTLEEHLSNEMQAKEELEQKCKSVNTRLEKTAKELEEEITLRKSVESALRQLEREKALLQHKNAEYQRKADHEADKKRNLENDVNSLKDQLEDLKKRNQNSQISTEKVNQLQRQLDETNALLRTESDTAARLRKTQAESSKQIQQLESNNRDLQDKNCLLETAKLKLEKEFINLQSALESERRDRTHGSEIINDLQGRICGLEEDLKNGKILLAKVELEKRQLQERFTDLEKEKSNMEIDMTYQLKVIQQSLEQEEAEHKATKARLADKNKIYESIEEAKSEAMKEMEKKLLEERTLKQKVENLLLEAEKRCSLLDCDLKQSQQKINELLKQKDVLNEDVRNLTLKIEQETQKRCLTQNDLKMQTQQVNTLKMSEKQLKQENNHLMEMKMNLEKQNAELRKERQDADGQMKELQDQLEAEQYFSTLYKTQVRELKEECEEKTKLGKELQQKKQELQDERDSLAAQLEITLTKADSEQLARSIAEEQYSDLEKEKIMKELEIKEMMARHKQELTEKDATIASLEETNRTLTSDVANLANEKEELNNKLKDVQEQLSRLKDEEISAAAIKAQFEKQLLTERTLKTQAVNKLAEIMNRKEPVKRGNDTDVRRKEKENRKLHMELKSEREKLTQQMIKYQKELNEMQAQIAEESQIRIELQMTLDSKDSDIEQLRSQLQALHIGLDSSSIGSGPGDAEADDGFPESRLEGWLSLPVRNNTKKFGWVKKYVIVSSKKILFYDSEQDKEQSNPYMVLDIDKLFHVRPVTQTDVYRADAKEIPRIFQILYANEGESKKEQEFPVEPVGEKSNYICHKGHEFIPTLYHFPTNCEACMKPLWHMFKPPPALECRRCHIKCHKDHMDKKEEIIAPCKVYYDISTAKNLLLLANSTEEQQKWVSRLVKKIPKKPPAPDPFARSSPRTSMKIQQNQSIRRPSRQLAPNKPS
T20 sequence (Q96BR1 whole entry): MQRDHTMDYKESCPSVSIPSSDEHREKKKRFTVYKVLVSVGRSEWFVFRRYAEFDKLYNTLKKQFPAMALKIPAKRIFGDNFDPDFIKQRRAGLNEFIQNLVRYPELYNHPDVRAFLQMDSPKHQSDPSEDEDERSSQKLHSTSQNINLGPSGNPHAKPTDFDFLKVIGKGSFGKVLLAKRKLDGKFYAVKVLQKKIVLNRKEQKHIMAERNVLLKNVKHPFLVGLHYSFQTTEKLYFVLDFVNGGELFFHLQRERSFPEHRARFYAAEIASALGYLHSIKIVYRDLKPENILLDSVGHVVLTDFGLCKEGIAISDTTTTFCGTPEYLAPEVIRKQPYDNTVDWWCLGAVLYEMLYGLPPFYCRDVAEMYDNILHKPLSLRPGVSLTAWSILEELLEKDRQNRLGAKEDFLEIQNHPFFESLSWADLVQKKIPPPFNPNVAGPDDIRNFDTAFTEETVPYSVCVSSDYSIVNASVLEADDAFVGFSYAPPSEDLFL

How did the “Avg POC” value (Met) turn out when `COCc1ccc2cccc(NC(=O)Nc3c(C)c(-c4cnn(C)c4)nn3-c3ccccc3)c2c1` [Example 16, 1-(1′,4-dimethyl-1-phenyl-1H,1′H-[3,4′-bipyrazol]-5-yl)-3-(7-(methoxymethyl)naphthalen-1-yl)urea] was run?
Its value is 130 POC.

And the “Avg POC” value (MST1)?
Its value is 111.5 POC.

What about the “Avg POC” value (DAPK3) of the same compound?
The value was 120 POC.

What about the “Avg POC” value (IGF-1R) of the same compound?
Its value is 81 POC.

What about the “Avg POC” value (ROCK-II) of the same compound?
Its value is 105 POC.

What about the “Avg POC” value (CDK1/cyclinB) of the same compound?
Its value is 117.5 POC.

And the “Avg POC” value (JNK3)?
Its value is 132 POC.

What about the “Avg POC” value (BrSK1) of the same compound?
Its value is 118 POC.

What about the “Avg POC” value (TAO1) of the same compound?
Its value is 104.5 POC.

And the “Avg POC” value (TBK1)?
Its value is 121.5 POC.

And the “Avg POC” value (NEK3)?
The value was 122 POC.

And the “Avg POC” value (EphA8)?
The value was 112.5 POC.

What about the “Avg POC” value (LKB1) of the same compound?
Its value is 111 POC.

What about the “Avg POC” value (FGFR3) of the same compound?
The value was 122 POC.

What about the “Avg POC” value (p70S6K) of the same compound?
Its value is 218 POC.

And the “Avg POC” value (Axl)?
The value was 103.5 POC.

What about the “Avg POC” value (NLK) of the same compound?
Its value is 113.5 POC.

What about the “Avg POC” value (DYRK2) of the same compound?
Its value is 99 POC.

What about the “Avg POC” value (BrSK2) of the same compound?
The value was 143 POC.

What about the “Avg POC” value (SGK3) of the same compound?
Its value is 131.5 POC.

And the “Avg POC” value (EphA4)?
Its value is 100.5 POC.

And the “Avg POC” value (PhKgamma2)?
The value was 118 POC.

And the “Avg POC” value (PKAC-alpha)?
The value was 134 POC.

What about the “Avg POC” value (MST2) of the same compound?
The value was 115 POC.

And the “Avg POC” value (TNK2)?
Its value is 115 POC.

What about the “Avg POC” value (CDK3/cyclinE) of the same compound?
The value was 125 POC.

What about the “Avg POC” value (JAK3) of the same compound?
The value was 131.5 POC.

And the “Avg POC” value (MARK2)?
Its value is 114 POC.

What about the “Avg POC” value (MuSK) of the same compound?
The value was 94 POC.

What about the “Avg POC” value (CHK1) of the same compound?
Its value is 139.5 POC.

And the “Avg POC” value (CDK5/p35)?
The value was 123.5 POC.

What about the “Avg POC” value (Pim-1) of the same compound?
The value was 124.5 POC.

And the “Avg POC” value (CDK7/cyclinH/MAT1)?
The value was 121.5 POC.

What about the “Avg POC” value (MSK1) of the same compound?
Its value is 132 POC.

And the “Avg POC” value (ITK)?
The value was 131 POC.

And the “Avg POC” value (PAK2)?
Its value is 121 POC.

And the “Avg POC” value (CDK5/p25)?
Its value is 110.5 POC.

What about the “Avg POC” value (PKCtheta) of the same compound?
Its value is 124.5 POC.

What about the “Avg POC” value (mTOR) of the same compound?
The value was 110 POC.

What about the “Avg POC” value (eEF-2K) of the same compound?
The value was 145.5 POC.

And the “Avg POC” value (AKT2)?
Its value is 217.5 POC.
